Measurements from patent US6784201B2, “Benzothiepines having activity as inhibitors of ileal bile acid transport and taurocholate uptake” (G.D. Searle & Company, priority 1994, dated 2004).

molecular target: T1, human IBAT (Homo sapiens, UniProt Q12908); test: In vitro assay of IBAT-mediated uptake of [14C]-taurocholate (TC) in H14 cells; type: cell-based; settings: 50 μM
T1 construct: expressed in transfected cells; host or cells: Baby hamster kidney (BHK) cells, clone H14
T1 sequence (Q12908 1-348): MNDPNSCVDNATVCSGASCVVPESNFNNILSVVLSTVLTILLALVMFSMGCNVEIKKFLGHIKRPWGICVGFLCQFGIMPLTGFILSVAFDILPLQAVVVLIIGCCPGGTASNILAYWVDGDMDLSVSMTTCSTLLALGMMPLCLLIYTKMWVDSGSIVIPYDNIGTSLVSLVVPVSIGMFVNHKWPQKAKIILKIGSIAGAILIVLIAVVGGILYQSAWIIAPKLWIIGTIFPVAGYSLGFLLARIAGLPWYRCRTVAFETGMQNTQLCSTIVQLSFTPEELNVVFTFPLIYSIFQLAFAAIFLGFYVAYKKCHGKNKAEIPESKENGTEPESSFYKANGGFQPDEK
Procedure: In Vitro Assay of Compounds that Inhibit IBAT-Mediated Uptake of [^14C]-Taurocholate (TC) in H14 Cells
Baby hamster kidney cells (BHK) transfected with the cDNA of human IBAT (H14 cells) are seeded at 60,000 cells/well in 96 well Top-Count tissue culture plates for assays run within in 24 hours of seeding, 30,000 cells/well for assays run within 48 hours, and 10,000 cells/well for assays run within 72 hours.
On the day of assay, the cell monolayer is gently washed once with 100 μl assay buffer (Dulbecco's Modified Eagle's medium with 4.5 g/L glucose+0.2% (w/v) fatty acid free bovine serum albumin-(FAF)BSA). To each well 50 μl of a two-fold concentrate of test compound in assay buffer is added along with 50 μl of 6 μM [^14C]-taurocholate in assay buffer (final concentration of 3 μM [^14C]-taurocholate). The cell culture plates are incubated 2 hours at 37° C. prior to gently washing each well twice with 100 μl 4° C. Dulbecco's phosphate-buffered saline (PBS) containing 0.2% (w/v) (FAF)BSA. The wells are then gently washed once with 100 μl 4° C. PBS without (FAF)BSA. To each 200 μl of liquid scintillation counting fluid is added, the plates are heat sealed and shaken for 30 minutes at room temperature prior to measuring the amount of radioactivity in each well on a Packard Top-Count instrument.

Compound | inhibition at 50 µM
CCCCCCNc1ccc2c(c1)[C@H](c1ccccc1)[C@H](O)[C@](CC)(CCCC)CS2(=O)=O [Example 40, (3α,4α,5α) 3-Butyl-3-ethyl-7-(n-hexylamino)-4-hydroxy-5-phenyl-2,3,4,5-tetrahydrobenzothiepine-1,1-dioxide] | 49%
C1=C(c2ccccc2)c2ccccc2SCC12CCCCC2 [Example 57, 5-Phenyl-2,3-dihydrospirobenzothiepine-3,1′-cyclohexane] | 51%

same assay, conditions: H14 cells, Table 5; read-out: IC50 uM (In vitro Taurocholate Cell Uptake)

Compound | IC50
CCCC[C@]1(CC)CSc2ccccc2[C@@H](c2ccccc2)[C@H]1O [Example 62, (3α,4β,5β) 3-Butyl-3-ethyl-4-hydroxy-5-phenyl-2,3,4,5-tetrahydrobenzothiepine] | 10 µM

same assay, conditions: Human TC IC50

Compound | IC50
CCCCC1(CC)CS(=O)(=O)c2ccc(N(C)C)cc2C(c2ccccc2)C1O (single isomer, unassigned) [Example 1259] | 16.5 µM

same assay, conditions: In Vitro Taurocholate Uptake, Table 10; read-out: Human TC IC50

Compound | IC50
CCCCC1(CCCC)CS(=O)(=O)c2ccc(N(C)C)cc2[C@@H](c2ccc(OCc3cccc(CN(CC(=O)O)CC(=O)O)n3)cc2)[C@H]1O [Example 1431, (4R-cis)-N-(Carboxymethyl)-N-[[6-[[4-[3,3-dibutyl-7-(dimethylamino)-2,3,4,5-tetrahydro-4-hydroxy-1,1-dioxido-1-benzothiepin-5-yl]phenoxy]methyl]-2-pyridinyl]methyl]glycine] | 0.005 µM

same assay, conditions: read-out: Human TC IC50

Compound | IC50
CCCCC1(CCCC)CS(=O)(=O)c2ccc(N(C)C)cc2C(c2ccc(OCCOCCOCC[N+](C)(C)CC[N+](C)(C)C)cc2)C1O (stereo not shown) [Example 1103] | 0.007 µM
CCCCC1(CCCC)CS(=O)(=O)c2ccc(N(C)C)cc2C(c2cccc(OCCOCCOCC[n+]3ccc(C)cc3)c2)C1O (stereo not shown) [Example 1096] | 0.006 µM
CCCCC1(CCCC)CS(=O)(=O)c2ccc(N(C)C)cc2C(c2cccc(OCCOCCOCC[n+]3cccc(C(=O)OC)c3)c2)C1O (stereo not shown) [Example 1094] | 0.006 µM
CCCCC1(CCCC)CS(=O)(=O)c2ccc(N(C)C)cc2C(c2ccc(OCCOCCBr)c(F)c2)C1O (stereo not shown) [Example 1239] | 0.035 µM
CCCCC1(CCCC)CS(=O)(=O)c2ccc(N(C)C)cc2C(c2cccc(OCCOCCOCC[N+](C)(C)CCN(CC)P(C)(=O)c3ccccc3)c2)C1O (stereo not shown) [Example 1035] | 0.002 µM
CCCCC1(CCCC)CS(=O)(=O)c2ccc([N+](C)(C)C)cc2C(c2ccc(OC)cc2)C1O (stereo not shown) [Example 1188] | 0.35 µM
CCCCC1(CCCC)CS(=O)(=O)c2c(cccc2N(C)C)C(c2ccc(OC)cc2)C1O (stereo not shown) [Example 1145] | 0.029 µM
CCCCC1(CCCC)CS(=O)(=O)c2c(F)cccc2C(c2ccc(OC)cc2)C1O (stereo not shown) [Example 1309] | 0.24 µM
CCCCC1(CCCC)CS(=O)(=O)c2c(cccc2N(C)C)C(c2ccc(F)cc2)C1O (stereo not shown) [Example 1129] | 0.018 µM
CCCCC1(CCCC)CS(=O)(=O)c2ccc(N(C)C)cc2C(c2cccc(OCCOCCOCC[N+](CC)(CC)CCNS(=O)(=O)N(C)C)c2)C1O (stereo not shown) [Example 1363] | 0.008 µM
CCCCC1(CCCC)CS(=O)(=O)c2c(F)cc(F)cc2C(c2ccc(F)cc2)C1O (stereo not shown) [Example 1184] | 0.28 µM
CCCCC1(CC)CS(=O)(=O)c2ccc(N(C)C)cc2C(c2cccc(OCCOCCOCC[N+](C)(C)C)c2)C1O (stereo not shown) [Example 1117] | 0.01 µM
CCCCC1(CCCC)CS(=O)(=O)c2ccc(OC)cc2C(c2cccc([N+](C)(C)C)c2)C1O (stereo not shown) [Example 1196] | 2 µM
CCCCC1(CCCC)CS(=O)(=O)c2c(SC)cccc2C(c2ccc(OC)cc2)C1O (stereo not shown) [Example 1215] | 0.19 µM
CCCCC1(CC)CS(=O)(=O)c2ccc(N3CCC3)cc2C(c2ccc(F)cc2)C1O (stereo not shown) [Example 144] | 0.053 µM
CCCCC1(CCCC)CS(=O)(=O)c2ccc([N+](C)(C)C)cc2C(c2ccc(F)c(F)c2)C1O (stereo not shown) [Example 1189] | 0.35 µM
CCCCC1(CCCC)CS(=O)(=O)c2c(OC)cc(N(C)C)cc2C(c2ccc(O)cc2)C1O (stereo not shown) [Example 1012] | 0.0015 µM
CCCCC1(CCCC)CS(=O)(=O)c2ccc(Br)cc2C(c2ccccc2Br)C1O (stereo not shown) [Example 1190] | 0.55 µM
CCCCC1(CCCC)CS(=O)(=O)c2ccc(N(C)C)cc2C(c2cccc(OCCOCCOCC[n+]3ccnc4ccccc43)c2)C1O (stereo not shown) [Example 1041] | 0.003 µM
CCCCC1(CCCC)CS(=O)(=O)c2ccc(N(C)C)cc2C(c2ccc(OCCOCC[N+]3(C)CC[N+](C)(C)CC3)c(F)c2)C1O (stereo not shown) [Example 1275] | 0.024 µM
CCCCC1(CCCC)CS(=O)(=O)c2ccc(N(C)C)cc2C(c2cccc(OCCOCCOCC[n+]3ccc(C(=O)O)cc3)c2)C1O (stereo not shown) [Example 1028] | 0.002 µM
CCCCC1(CC)CS(=O)(=O)c2ccc(N(C)C)cc2C(c2ccc(OC)cc2)C1O (stereo not shown) [Example 1131] | 0.02 µM
CCCCC1(CCCC)CS(=O)(=O)c2ccc(N(C)C)cc2C(c2cccc(OCCOCCOCC[n+]3ccn(CC)c3)c2)C1O (stereo not shown) [Example 1367] | 0.002 µM
CCCC[C@]1(CC)CS(=O)(=O)c2cc(OCCOCCOCCI)ccc2[C@@H](c2ccccc2)[C@H]1O [Example 134] | 0.3 µM
CCCCC1(CC)CS(=O)(=O)c2ccc(SC)cc2C(c2ccc(F)cc2)C1O (stereo not shown) [Example 281] | 0.019 µM

Compound | IC50
CCCCC1(CCCC)CS(=O)(=O)c2ccc(O)cc2C(c2ccc(N(C)C)cc2)C1O (stereo not shown) [Example 1191] | 0.65 µM
CCCCC1(CCCC)CS(=O)(=O)c2ccc(N(C)C)cc2C(c2cccc(OCCOCCOCC[n+]3cccc4ccc5ccccc5c43)c2)C1O (stereo not shown) [Example 1034] | 0.002 µM
CCCCC1(CCCC)CS(=O)(=O)c2ccc(N(C)C)cc2C(c2ccc(C[n+]3ccccc3)cc2)C1O (stereo not shown) [Example 1254] | 0.85 µM
CCCCC1(CCCC)CS(=O)(=O)c2ccc(N(C)C)cc2C(c2cccc(OCCOCCOCC[n+]3cc4ccccn4c3)c2)C1O (stereo not shown) [Example 1030] | 0.002 µM
CCCCC1(CCCC)CS(=O)(=O)c2ccc(N(C)C)cc2C(c2cccc(OCCOCCOCC[N+]3(CCO)CCOCC3)c2)C1O (stereo not shown) [Example 1021] | 0.002 µM
CCCCC1(CCCC)CS(=O)(=O)c2ccc(N(C)C)cc2C(c2cccc(OCCOCCOCC[n+]3ccc(C(C)C)cc3)c2)C1O (stereo not shown) [Example 1027] | 0.002 µM
CCCCC1(CC)CS(=O)(=O)c2ccc(S(C)(=O)=O)cc2C(c2cccc(OC)c2)C1O (stereo not shown) [Example 1175] | 0.17 µM
CCCCC1(CCCC)CS(=O)(=O)c2ccc(N(C)C)cc2C(c2ccc(OCCOCC[n+]3ccccc3)c(F)c2)C1O (stereo not shown) [Example 1049] | 0.003 µM
C=CCOc1ccc(C2c3cc(N(C)C)ccc3S(=O)(=O)CC(CCCC)(CCCC)C2O)cc1Cl (stereo not shown) [Example 1167] | 0.12 µM
C=CC(=O)Nc1cccc(C2c3cc(N(C)C)ccc3S(=O)(=O)CC(CCCC)(CCCC)C2O)c1 (stereo not shown) [Example 1043] | 0.003 µM
CCCCC1(CCCC)CS(=O)(=O)c2ccc(NC(C)C)cc2C(c2cccc(OC)c2)C1O (stereo not shown) [Example 1220] | 0.2 µM
CCCCC1(CCCC)CS(=O)(=O)c2ccc(N(C)C)cc2C(c2ccc(OCCN(C)C)cc2)C1O (stereo not shown) [Example 1219] | 0.34 µM
CCCCC1(CCCC)CS(=O)(=O)c2ccc(N(C)C)cc2C(c2ccc(C[N+](C)(C)CCO)cc2)C1O (stereo not shown) [Example 1249] | 10.2 µM
CCCCC1(CC)CS(=O)(=O)c2ccc(OC)cc2C(c2ccc(F)cc2)C1O (stereo not shown) [Example 268] | 0.029 µM
CCCCC1(CCCC)CS(=O)(=O)c2ccc(N(C)CC)cc2C(c2cccc(OC)c2)C1O (stereo not shown) [Example 1150] | 0.03 µM
CCCCCCOc1ccc2c(c1)C(c1ccccc1)C(O)C(CC)(CCCC)CS2(=O)=O (stereo not shown) [Example 1315] | 1.67 µM
CCCCC1(CCCC)CS(=O)(=O)c2ccc(N(C)C)cc2C(c2cccc(OS(=O)(=O)C(F)(F)F)c2)C1O (stereo not shown) [Example 1178] | 0.19 µM
CCCCC1(CC)CS(=O)(=O)c2ccc(NC(=O)OCc3ccccc3)cc2C(c2ccc(OC)cc2)C1O (single isomer, unassigned) [Example 116] | 0.3 µM
CCCCC1(CCCC)CS(=O)(=O)c2ccc(N(C)C)cc2C(c2ccc(OC)cc2)C1O (stereo not shown) [Example 1208] | 0.042 µM
CCCCC1(CCCC)CS(=O)(=O)c2ccc(N(C)C)cc2C(c2cccc(OCCOCCOCC[N+]3=C4CCCCCN4CCC3)c2)C1O (stereo not shown) [Example 1104] | 0.007 µM
CCCCC1(CCCC)CS(=O)(=O)c2ccc(N(C)C)cc2C(c2ccncc2)C1O (stereo not shown) [Example 1112] | 0.008 µM
CCCCC1(CCCC)CS(=O)(=O)c2ccc(N(C)C)cc2C(c2ccccc2)C1O (stereo not shown) [Example 1039] | 0.0026 µM
CCCCC1(CCCC)CS(=O)(=O)c2ccc(N(C)C)cc2C(c2ccccc2)C1O (stereo not shown) [Example 1123] | 0.011 µM
CCCCC1(CC)CS(=O)(=O)c2ccc(OC)cc2C(c2cccc(O)c2)C1O (stereo not shown) [Example 267] | 0.073 µM
C=C(C)C(=O)OCC[N+](CC)(CC)CCOCCOCCOc1cccc(C2c3cc(N(C)C)ccc3S(=O)(=O)CC(CCCC)(CCCC)C2O)c1 (stereo not shown) [Example 1023] | 0.002 µM
